Reference: US9125913B2, “Bcl-2-selective apoptosis-inducing agents for the treatment of cancer and immune diseases” (AbbVie Inc., priority 2008, dated 2015)

Test system: GST-Bcl-2
Test: TR-FRET binding assay, Bcl-2
Conditions: TR-FRET Ki values
In short: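 Compounds serially diluted in DMSO from 50 μM (2× starting concentration, 10% DMSO), mixed with GST-tagged protein, F-Bak peptide probe and Tb-labeled antibody, incubated 3 h at room temperature.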

Compound: CC1(C)CCC(CN2CCN(c3ccc(C(=O)NS(=O)(=O)c4ccc(OCCCS(C)(=O)=O)c([N+](=O)[O-])c4)c(Oc4cccc5[nH]ccc45)c3)CC2)=C(c2ccc(Cl)cc2)C1 [EXAMPLE 316, 4-(4-{[2-(4-chlorophenyl)-4,4-dimethylcyclohex-1-en-1-yl]methyl}piperazin-1-yl)-2-(1H-indol-4-yloxy)-N-({4-[3-(methylsulfonyl)propoxy]-3-nitrophenyl}sulfonyl)benzamide]
- Binding selectivity ratio (Bcl-XL Ki/Bcl-2 Ki): 533.7

Compound: CC1(C)CCC(CN2CCN(c3ccc(C(=O)NS(=O)(=O)c4cnc(OC[C@H]5CC[C@H](O)CC5)c(Cl)c4)c(Oc4cccc5[nH]ncc45)c3)CC2)=C(c2ccc(Cl)cc2)C1 [EXAMPLE 421, Trans-N-({5-chloro-6-[(4-hydroxycyclohexyl)methoxy]pyridin-3-yl}sulfonyl)-4-(4-{[2-(4-chlorophenyl)-4,4-dimethylcyclohex-1-en-1-yl]methyl}piperazin-1-yl)-2-(1H-indazol-4-yloxy)benzamide]
- Binding selectivity ratio (Bcl-XL Ki/Bcl-2 Ki): 2090

Compound: CC1(C)CCC(CN2CCN(c3ccc(C(=O)NS(=O)(=O)c4cnc(OCC5CCOCC5)c(Cl)c4)c(Oc4cccc5[nH]ccc45)c3)CC2)=C(c2ccc(Cl)cc2)C1 [EXAMPLE 387, 4-(4-{[2-(4-chlorophenyl)-4,4-dimethylcyclohex-1-en-1-yl]methyl}piperazin-1-yl)-N-{[5-chloro-6-(tetrahydro-2H-pyran-4-ylmethoxy)pyridin-3-yl]sulfonyl}-2-(1H-indol-4-yloxy)benzamide]
- Binding selectivity ratio (Bcl-XL Ki/Bcl-2 Ki): 1723.4

Compound: CC1(C)CCC(CN2CCN(c3ccc(C(=O)NS(=O)(=O)c4ccc(N5CCOCC5)c([N+](=O)[O-])c4)c(Oc4ccc5[nH]ccc5c4)c3)CC2)=C(c2ccc(Cl)cc2)C1 [EXAMPLE 270, 4-(4-{[2-(4-chlorophenyl)-4,4-dimethylcyclohex-1-en-1-yl]methyl}piperazin-1-yl)-2-(1H-indol-5-yloxy)-N-[(4-morpholin-4-yl-3-nitrophenyl)sulfonyl]benzamide]
- Binding selectivity ratio (Bcl-XL Ki/Bcl-2 Ki): >199.1

Compound: CC1(C)CCC(CN2CCN(c3ccc(C(=O)NS(=O)(=O)c4ccc(NCC5CCS(=O)(=O)C5)c([N+](=O)[O-])c4)c(Oc4cccc5[nH]ccc45)c3)CC2)=C(c2ccc(Cl)cc2)C1 (stereo not shown) [EXAMPLE 326, 4-(4-{[2-(4-chlorophenyl)-4,4-dimethylcyclohex-1-en-1-yl]methyl}piperazin-1-yl)-N-[(4-{[(1,1-dioxidotetrahydrothien-3-yl)methyl]amino}-3-nitrophenyl)sulfonyl]-2-(1H-indol-4-yloxy)benzamide]
- Binding selectivity ratio (Bcl-XL Ki/Bcl-2 Ki): >5708.8

Compound: CN(C)C1(CNc2ccc(S(=O)(=O)NC(=O)c3ccc(N4CCN(CC5=C(c6ccc(Cl)cc6)CC(C)(C)CC5)CC4)cc3Oc3ccc4[nH]ccc4c3)cc2[N+](=O)[O-])CCOCC1 [EXAMPLE 207, 4-(4-{[2-(4-chlorophenyl)-4,4-dimethylcyclohex-1-en-1-yl]methyl}piperazin-1-yl)-N-{[4-({[4-(dimethylamino)tetrahydro-2H-pyran-4-yl]methyl}amino)-3-nitrophenyl]sulfonyl}-2-(1H-indol-5-yloxy)benzamide]
- Binding selectivity ratio (Bcl-XL Ki/Bcl-2 Ki): >3021.3

Compound: CC1(C)CCC(CN2CCN(c3ccc(C(=O)NS(=O)(=O)c4ccc(S(C)(=O)=O)cc4)c(Oc4ccc5[nH]ccc5c4)c3)CC2)=C(c2ccc(Cl)cc2)C1 [EXAMPLE 382, 4-(4-{[2-(4-chlorophenyl)-4,4-dimethylcyclohex-1-en-1-yl]methyl}piperazin-1-yl)-2-(1H-indol-5-yloxy)-N-{[4-(methylsulfonyl)phenyl]sulfonyl}benzamide]
- Binding selectivity ratio (Bcl-XL Ki/Bcl-2 Ki): >573.9

Compound: CC1(C)CCC(CN2CCN(c3ccc(C(=O)NS(=O)(=O)c4cnc(OCC5CCC(F)(F)CC5)c(Cl)c4)c(Oc4cccc5[nH]cnc45)c3)CC2)=C(c2ccc(Cl)cc2)C1 [EXAMPLE 463, 2-(1H-benzimidazol-4-yloxy)-N-({5-chloro-6-[(4,4-difluorocyclohexyl)methoxy]pyridin-3-yl}sulfonyl)-4-(4-{[2-(4-chlorophenyl)-4,4-dimethylcyclohex-1-en-1-yl]methyl}piperazin-1-yl)benzamide]
- Binding selectivity ratio (Bcl-XL Ki/Bcl-2 Ki): 6043

Compound: CN1CCC(Nc2ccc(S(=O)(=O)NC(=O)c3ccc(N4CCN(CC5=C(c6ccc(Cl)cc6)CCC(O)C5)CC4)cc3Oc3ccc4[nH]ccc4c3)cc2[N+](=O)[O-])CC1 (stereo not shown) [EXAMPLE 224, 4-(4-{[2-(4-chlorophenyl)-5-hydroxycyclohex-1-en-1-yl]methyl}piperazin-1-yl)-2-(1H-indol-5-yloxy)-N-({4-[(1-methylpiperidin-4-yl)amino]-3-nitrophenyl}sulfonyl)benzamide]
- Binding selectivity ratio (Bcl-XL Ki/Bcl-2 Ki): >99.9

Compound: CC1(C)CCC(CN2CCN(c3ccc(C(=O)NS(=O)(=O)c4ccc(NCCCN5CCOCC5)c([N+](=O)[O-])c4)c(Oc4ccc5[nH]ncc5c4)c3)CC2)=C(c2ccc(Cl)cc2)C1 [Example 20, 4-(4-{[2-(4-chlorophenyl)-4,4-dimethylcyclohex-1-en-1-yl]methyl}piperazin-1-yl)-2-(1H-indazol-5-yloxy)-N-({4-[(3-morpholin-4-ylpropyl)amino]-3-nitrophenyl}sulfonyl)benzamide]
- Binding selectivity ratio (Bcl-XL Ki/Bcl-2 Ki): 32.8

Compound: CC1(C)CCC(CN2CCN(c3ccc(C(=O)NS(=O)(=O)c4ccc(NC5CCS(=O)(=O)C5)c([N+](=O)[O-])c4)c(Oc4ccc5[nH]ccc5c4)c3)CC2)=C(c2ccc(Cl)cc2)C1 (stereo not shown) [EXAMPLE 276, 4-(4-{[2-(4-chlorophenyl)-4,4-dimethylcyclohex-1-en-1-yl]methyl}piperazin-1-yl)-N-({4-[(1,1-dioxidotetrahydrothien-3-yl)amino]-3-nitrophenyl}sulfonyl)-2-(1H-indol-5-yloxy)benzamide]
- Binding selectivity ratio (Bcl-XL Ki/Bcl-2 Ki): 2650.8

Compound: CC1(C)CCC(CN2CCN(c3ccc(C(=O)NS(=O)(=O)c4ccc(NCC5CCOCC5)c(S(=O)(=O)C(F)(F)F)c4)c(Oc4cccc5[nH]ccc45)c3)CC2)=C(c2ccc(Cl)cc2)C1 [EXAMPLE 303, 4-(4-{[2-(4-chlorophenyl)-4,4-dimethylcyclohex-1-en-1-yl]methyl}piperazin-1-yl)-2-(1H-indol-4-yloxy)-N-({4-[(tetrahydro-2H-pyran-4-ylmethyl)amino]-3-[(trifluoromethyl)sulfonyl]phenyl}sulfonyl)benzamide]
- Binding selectivity ratio (Bcl-XL Ki/Bcl-2 Ki): >445.9

Compound: CN1CCC(COc2ccc(S(=O)(=O)NC(=O)c3ccc(N4CCN(CC5=C(c6ccc(Cl)cc6)CC(C)(C)CC5)CC4)cc3Oc3ccc4[nH]ccc4c3)cc2[N+](=O)[O-])CC1 [EXAMPLE 354, 4-(4-{[2-(4-chlorophenyl)-4,4-dimethylcyclohex-1-en-1-yl]methyl}piperazin-1-yl)-2-(1H-indol-5-yloxy)-N-({4-[(1-methylpiperidin-4-yl)methoxy]-3-nitrophenyl}sulfonyl)benzamide]
- Binding selectivity ratio (Bcl-XL Ki/Bcl-2 Ki): 148.8

Compound: CN1CCC(Nc2ccc(S(=O)(=O)NC(=O)c3ccc(N4CCN(Cc5cc(OCCO)ccc5-c5ccc(Cl)cc5)CC4)cc3Oc3cccc4[nH]ccc34)cc2[N+](=O)[O-])CC1 [EXAMPLE 221, 4-(4-{[4′-chloro-4-(2-hydroxyethoxy)-1,1′-biphenyl-2-yl]methyl}piperazin-1-yl)-2-(1H-indol-4-yloxy)-N-({4-[(1-methylpiperidin-4-yl)amino]-3-nitrophenyl}sulfonyl)benzamide]
- Binding selectivity ratio (Bcl-XL Ki/Bcl-2 Ki): 3005.2

Compound: CC1(C)CCC(CN2CCN(c3ccc(C(=O)NS(=O)(=O)c4cnc(O[C@@H]5CCN(CC(F)F)C5)c(Cl)c4)c(Oc4cccc5[nH]ncc45)c3)CC2)=C(c2ccc(Cl)cc2)C1 [EXAMPLE 422, N-[(5-chloro-6-{[(3R)-1-(2,2-difluoroethyl)pyrrolidin-3-yl]oxy}pyridin-3-yl)sulfonyl]-4-(4-{[2-(4-chlorophenyl)-4,4-dimethylcyclohex-1-en-1-yl]methyl}piperazin-1-yl)-2-(1H-indazol-4-yloxy)benzamide]
- Binding selectivity ratio (Bcl-XL Ki/Bcl-2 Ki): 4073

Compound: CC1(C)CCC(CN2CCN(c3ccc(C(=O)NS(=O)(=O)c4ccc(NCCC(F)(F)F)c([N+](=O)[O-])c4)c(Oc4ccc5[nH]ccc5c4)c3)CC2)=C(c2ccc(Cl)cc2)C1 [EXAMPLE 324, 4-(4-{[2-(4-chlorophenyl)-4,4-dimethylcyclohex-1-en-1-yl]methyl}piperazin-1-yl)-2-(1H-indol-5-yloxy)-N-({3-nitro-4-[(3,3,3-trifluoropropyl)amino]phenyl}sulfonyl)benzamide]
- Binding selectivity ratio (Bcl-XL Ki/Bcl-2 Ki): >445.7

Compound: CC1(C)CCC(CN2CCN(c3ccc(C(=O)NS(=O)(=O)c4ccc(NCCCS(C)(=O)=O)c([N+](=O)[O-])c4)c(Oc4cccc5[nH]ccc45)c3)CC2)=C(c2ccc(Cl)cc2)C1 [EXAMPLE 294, 4-(4-{[2-(4-chlorophenyl)-4,4-dimethylcyclohex-1-en-1-yl]methyl}piperazin-1-yl)-2-(1H-indol-4-yloxy)-N-[(4-{[3-(methylsulfonyl)propyl]amino}-3-nitrophenyl)sulfonyl]benzamide]
- Binding selectivity ratio (Bcl-XL Ki/Bcl-2 Ki): 252

Compound: CN(C)CC(=O)N1CCO[C@@H](COc2ncc(S(=O)(=O)NC(=O)c3ccc(N4CCN(CC5=C(c6ccc(Cl)cc6)CC(C)(C)CC5)CC4)cc3Oc3cccc4[nH]ncc34)cc2Cl)C1 [compound 426, N-[(5-chloro-6-{[(2R)-4-(N,N-dimethylglycyl)morpholin-2-yl]methoxy}pyridin-3-yl)sulfonyl]-4-(4-{[2-(4-chlorophenyl)-4,4-dimethylcyclohex-1-en-1-yl]methyl}piperazin-1-yl)-2-(1H-indazol-4-yloxy)benzamide]
- Binding selectivity ratio (Bcl-XL Ki/Bcl-2 Ki): 604.2

Compound: CC1(C)CCC(CN2CCN(c3ccc(C(=O)NS(=O)(=O)c4ccc(N[C@H]5CC[C@H](N6CCOCC6)CC5)c([N+](=O)[O-])c4)c(Oc4cccc5[nH]ncc45)c3)CC2)=C(c2ccc(Cl)cc2)C1 [EXAMPLE 402, Trans-4-(4-{[2-(4-chlorophenyl)-4,4-dimethylcyclohex-1-en-1-yl]methyl}piperazin-1-yl)-2-(1H-indazol-4-yloxy)-N-({4-[(4-morpholin-4-ylcyclohexyl)amino]-3-nitrophenyl}sulfonyl)benzamide]
- Binding selectivity ratio (Bcl-XL Ki/Bcl-2 Ki): 137.4
